Results from US5587473A, “7-acyl-3-(substituted carbamoyloxy) cephem compounds and process for their preparation” (Eisai Co., Ltd., priority 1990, dated 1996).
Values after ≈ are worked out from the molar mass of the structure shown.

Legend:
[1] = system: Klebsiella pneumonia E02033; test: MIC against Klebsiella pneumonia E02033; assay type: cell-based; conditions: Klebsiella pneumoniae, Table 3
[2] = system: Klebsiella pneumonia E02033; test: Treatment of respiratory-infected mice, Klebsiella pneumonia E02033; assay type: in vivo, mouse infected with Klebsiella pneumonia; conditions: mouse, oral, 10 mg/kg; for Intrapulmonary viable cells: 4 hours after inoculation of 1.4 × 10^3 CFU/mouse, counted 24 hours after infection, limit 1.48, no colony = 1, control 7.31 ± 0.73; for Eradication rate: inoculum 1.4 × 10^3 CFU/mouse, 24 hours after infection, control 0
Experimental: (§1) A bacterium-containing solution was inoculated into the nasal cavity of each mouse, followed by the oral administration of a suspension of one of the compounds in a CMC-Na solution one hour later where the bacterium was Haemophilus influenzae but four hours later where the bacterium was Klebsiella pneumoniae. The number of intrapulmonary viable cells of the bacterium was counted upon an elapsed time of 24 hours after the infection. The measurement limit is represented by the following formula. Log CFU/Lung=1.48 wherein CFU is the colony forming unit. When no colony was observed, the bacterium was regarded as having been eradicated and Log CFU/Lung was calculated to be 1.

[3] = system: Haemophilus influenzae E35147; test: MIC against Haemophilus influenzae E35147; assay type: cell-based; conditions: Table 4
[4] = system: Haemophilus influenzae E35147; test: Treatment of respiratory-infected mice, Haemophilus influenzae E35147; assay type: in vivo, mouse infected with Haemophilus influenzae; conditions: mouse, oral, 40 mg/kg, 1 hour after inoculation of 4.3 × 10^5 CFU/mouse; counted 24 hours after infection; limit 1.48, no colony = 1; control 5.73 ± 0.58
Experimental: as §1

[5] = system: Staphylococcus aureus 209-P; test: MIC against Staphylococcus aureus 209-P; assay type: cell-based; conditions: Table 1
Escherichia coli NIHJ = test: MIC against Escherichia coli NIHJ; assay type: cell-based; conditions: Table 1
[6] = system: Klebsiella pneumoniae IID875; test: MIC against Klebsiella pneumoniae IID875; assay type: cell-based; conditions: Table 1
[7] = system: Serratia marcescens IID620; test: MIC against Serratia marcescens IID620; assay type: cell-based; conditions: Table 1
[8] = system: Morganella morganii IID601; test: MIC against Morganella morganii IID601; assay type: cell-based; conditions: Table 1
[9] = system: Haemophilus influenzae IID1638; test: MIC against Haemophilus influenzae IID1638; assay type: cell-based; conditions: Table 1
[10] = Bioavailability by oral administration in mice (urinary excretion); assay type: in vivo; conditions: mouse, urine, 20 mg/kg, CMC-Na suspension; for dose excreted at 6 h: collected during 6 hours, read-out: Recovery in urea
Experimental: Certain representative compounds according to the present invention were each suspended in a CMC-Na solution. The resulting suspension was administered orally to mice at the dosage of 20 mg/kg. Urea excreted during 6 hours after the administration was collected.

Compound	MIC [3] [µg/mL]	Intrapulmonary viable cells [4] [Log CFU/Lung]	MIC [5] [µg/mL]	MIC (Escherichia coli NIHJ) [µg/mL]	MIC [6] [µg/mL]	MIC [7] [µg/mL]	MIC [8] [µg/mL]	MIC [9] [µg/mL]	bioavailability at 6 h [10] [%]	dose excreted at 6 h [10] [%]	other results
C=CC1=C(C(=O)O)N2C(=O)C(NC(=O)/C(=N\O)c3csc(N)n3)[C@H]2SC1 (some centres unmarked) [Compound F, 7-[(Z)-2-(2-aminothiazol-4-yl)-2-hydroxyiminoacetamido]-3-vinyl-3-cephem-4-carboxylic acid]	0.8 (≈ 2.02 µM)	5.16 ± 0.73	–	–	–	–	–	–	–	–	MIC [1]: 0.2 µg/mL (≈ 0.506 µM); Intrapulmonary viable cells [2]: 6.25 ± 0.74 log CFU/lung; Eradication rate [2]: 0%
1-(Isopropoxycarbonyloxy)ethyl 7β-[2-(2-aminothiazol-4-yl)-2-(Z)-hydroxyiminoacetamido]-3-N,N-dimethylcarbamoyloxymethyl-3-cephem-carboxylate hydrochloride [Example 41]	–	–	0.2	0.2	0.2	0.1	0.1	0.2	–	–	–
CC(C)OC(=O)OC(C)OC(=O)C1=C(COC(=O)N(C)C)CSC2C(NC(=O)/C(=N\O)c3csc(N)n3)C(=O)N12 (centres unmarked) [Example 20, 1-(Isopropyloxycarbonyloxy)ethyl 7-[(Z)-2-(2-aminothiazol-4-yl)-2-hydroxyiminoacetamido]-3-N,N-dimethylcarbamoyloxymethyl-3-cephem-4-carboxylate]	0.1 (≈ 0.166 µM)	3.51 ± 0.37	–	–	–	–	–	–	46	22	MIC [1]: 0.1 µg/mL (≈ 0.166 µM); Intrapulmonary viable cells [2]: 1.66 ± 1.02 log CFU/lung; Eradication rate [2]: 50%
CC(C)OC(=O)OC(C)OC(=O)C1=C(COC(N)=O)CS[C@@H]2C(NC(=O)/C(=N\O)c3csc(N)n3)C(=O)N12 (some centres unmarked) [Compound C, 1-(Isopropyloxycarbonyloxy)ethyl 7-[(Z)-2-(2-aminothiazol-4-yl)-2-hydroxyiminoacetamido]-3-carbamoyloxymethyl-3-cephem-4-carboxylate, reference compound]	0.8 (≈ 1.4 µM)	5.50 ± 0.61	–	–	–	–	–	–	7	4.5	–
CN(C)C(=O)OCC1=C(C(=O)OCOC(=O)C(C)(C)C)N2C(=O)C(NC(=O)/C(=N\O)c3csc(N)n3)C2SC1 (centres unmarked) [Example 14, Pivaloyloxymethyl 7-[(Z)-2-(2-aminothiazol-4-yl)-2-hydroxyiminoacetamido]-3-N,N-dimethylcarbamoyloxymethyl-3-cephem-4-carboxylate]	–	–	–	–	–	–	–	–	38	18.2	–
CO/N=C(\C(=O)NC1C(=O)N2C(C(=O)OCOC(=O)C(C)(C)C)=C(COC(=O)N(C)C)CSC12)c1csc(N)n1 (centres unmarked) [Example 24, Pivaloyloxymethyl 7-[(Z)-2-(2-aminothiazol-4-yl)-2-methoxyiminoacetamido]-3-N,N-dimethylcarbamoyloxymethyl-3-cephem-4-carboxylate]	–	–	–	–	–	–	–	–	34	20	–
7-Amino-3-N,N-dimethylcarbamoyloxymethyl-3-cephem-4-carboxylic acid [Example 39]	–	–	0.2	0.05	0.025	0.05	0.05	0.2	–	–	–
CC(=O)O/N=C(\C(=O)NC1C(=O)N2C(C(=O)OC(C)OC(=O)OC(C)C)=C(COC(=O)N(C)C)CSC12)c1csc(N)n1 (stereo not drawn) [Example 43, 1-(Isopropoxycarbonyloxy)ethyl 7β-[2-(2-aminothiazol-4-yl)-2-(Z)-acetoxyiminoacetamido]-3-N,N-dimethylcarbamoyloxymethyl-3-cephem-carboxylate]	0.2 (≈ 0.311 µM)	4.86 ± 0.60	–	–	–	–	–	–	–	–	–
COCC1=C(C(=O)OC(C)OC(=O)OC(C)C)N2C(=O)C(NC(=O)/C(=N\OC)c3csc(N)n3)[C@H]2SC1 (some centres unmarked) [Compound E, 1-(Isopropyloxycarbonyloxy)ethyl 7-[(Z)-2-(2-aminothiazol-4-yl)-2-methoxyiminoacetamido]-3-methoxymethyl-3-cephem-4-carboxylate]	–	–	–	–	–	–	–	–	–	–	MIC [1]: 0.2 µg/mL (≈ 0.359 µM); Intrapulmonary viable cells [2]: 4.26 ± 0.62 log CFU/lung; Eradication rate [2]: 0%
CO/N=C(\C(=O)NC1C(=O)N2C(C(=O)OCOC(=O)C(C)(C)C)=C(COC(N)=O)CS[C@H]12)c1csc(N)n1 (some centres unmarked) [Compound D, Pivaloyloxymethyl 7-[(Z)-2-(2-aminothiazol-4-yl)-2-methoxyiminoacetamido]-3-carbamoyloxymethyl-3-cephem-4-carboxylate, reference compound]	–	–	–	–	–	–	–	–	17	10.4	–
CC(C)(C)C(=O)OCOC(=O)C1=C(COC(N)=O)CS[C@@H]2C(NC(=O)/C(=N\O)c3csc(N)n3)C(=O)N12 (some centres unmarked) [Compound B, Pivaloyloxymethyl 7-[(Z)-2-(2-aminothiazol-4-yl)-2-hydroxyiminoacetamido]-3-carbamoyloxymethyl-3-cephem-4-carboxylate, reference compound]	–	–	–	–	–	–	–	–	17	11	–
1-(Isopropoxycarbonyloxy)ethyl 7β-[2-(2-aminothiazol-4-yl)-2-(Z)-acetoxyiminoacetamido]-3-N,N-dimethylcarbamoyloxymethyl-3-cephem-carboxylate hydrochloride [Example 40]	–	–	0.2	0.05	0.05	0.1	0.05	0.2	–	–	–
Benzhydryl 7-formamido-3-N,N-dimethylcarbamoyloxymethyl-3-cephem-4-carboxylate [Example 38]	–	–	0.1	0.025	0.025	0.05	0.05	0.2	–	–	–
